Key:
[1] = Dose normalised AUC in monkey after po administration; conditions: macaca, in vivo
[2] = Dose normalised AUC in rat after po administration; conditions: in vivo
[3] = Dose normalised AUC in human after po administration; conditions: in vivo
[4] = Dose normalised AUC in dog after po administration; conditions: in vivo

SMILES	DNAUC [1] [kg·min/L]	DNAUC [2] [kg·min/L]	DNAUC [3] [kg·min/L]	DNAUC [4] [kg·min/L]
O=C(O)CCc1nc(-c2ccccc2)c(-c2ccccc2)o1 [OXAPROZIN]	2.85	0.04	9.07	3.2
Cc1c(C)c2c(c(C)c1O)CCC(C)(COc1ccc(CC3SC(=O)NC3=O)cc1)O2 (stereo not drawn) [TROGLITAZONE]	34.08	13.44	80.71	61.2
Cc1ncc2n1-c1ccc(Cl)cc1C(c1ccccc1F)=NC2 [MIDAZOLAM]	4.17	1.64	66.67	23.79
COCCc1ccc(OCC(O)CNC(C)C)cc1 (stereo not drawn) [METOPROLOL]	8.33	58	25.33	15.8
NCC1(CC(=O)O)CCCCC1 [GABAPENTIN]	156.24	87.72	369.82	290.4
COC(=O)C1=C(C)NC(C)=C(C(=O)OCC(C)C)C1c1ccccc1[N+](=O)[O-] (stereo not drawn) [NISOLDIPINE]	0.84	0.49	1.2	2.64
CCCCCNC(=O)c1coc([C@H]2[C@@H](Cc3ccccc3CCC(=O)O)[C@@H]3CC[C@H]2O3)n1 [IFETROBAN]	13.02	2.86	77.32	9.48
Cn1cc(/C=C2/C(=O)N3C(C(=O)O)=CS[C@H]23)nn1	0.45	0.29	5	3.33
NS(=O)(=O)Cc1noc2ccccc12 [ZONISAMIDE]	2097	663	3030	1458
O=C(O)C(Cl)c1ccc(C2CCCCC2)c(Cl)c1 (stereo not drawn) [FENCLORAC]	491.65	630.2	2651.33	2454.09
CCCCN1C[C@H](O)[C@@H](O)[C@H](O)[C@H]1CO [MIGLUSTAT]	166.88	16.6	358.71	204
COC(=O)C1=C(C)NC(C)=C(C(=O)OCCN(C)Cc2ccccc2)C1c1cccc([N+](=O)[O-])c1 (stereo not drawn) [NICARDIPINE]	3.84	1.1	10	2
O=P(O)(O)C(Sc1ccc(Cl)cc1)P(=O)(O)O [TILUDRONIC ACID]	171.6	37.2	286.32	129.6
COc1c(N2C[C@@H]3CCCN[C@@H]3C2)c(F)cc2c(=O)c(C(=O)O)cn(C3CC3)c12 [MOXIFLOXACIN]	45.09	18.35	372.73	245.95
O=c1ccc2ccccc2o1 [COUMARIN]	31.8	37.5	2.03	40.38
N[C@@H]1[C@H]2CN(c3nc4c(cc3F)c(=O)c(C(=O)O)cn4-c3ccc(F)cc3F)C[C@@H]12 [TROVAFLOXACIN]	120.6	51	540	44.25
C[C@H](C(=O)O)c1ccc2oc(-c3ccc(F)cc3)nc2c1 [FLUNOXAPROFEN]	1464.8	14620.68	2794	960.78
CS(=O)(=O)Nc1ccc(F)c([C@@H](O)CN)c1 [NS-49]	165.6	33.3	306	382.2
CCN(CC)CC(=O)Nc1c(C)cccc1C [LIDOCAINE]	3.79	1.64	38.04	8.38
O=C(O)c1cn(C2CC2)c2cc(N3CCNCC3)c(F)cc2c1=O [CIPROFLOXACIN]	85.2	9.36	77.03	32.75
NS(=O)(=O)c1cc(C(=O)O)c(NCc2ccco2)cc1Cl [FUROSEMIDE]	43.2	44.73	184.62	57.84

SMILES	DNAUC [1] [kg·min/L]	DNAUC [2] [kg·min/L]	DNAUC [3] [kg·min/L]	DNAUC [4] [kg·min/L]
COc1ccc2c(c1)c(CC(=O)O)c(C)n2C(=O)c1ccc(Cl)cc1 [INDOMETHACIN]	133.1	2056	488.62	793.3
CC(C)c1nc(CN(C)C(=O)N[C@H](C(=O)N[C@@H](Cc2ccccc2)C[C@H](O)[C@H](Cc2ccccc2)NC(=O)OCc2cncs2)C(C)C)cs1 [RITONAVIR]	27.18	41.59	370.17	101.08
CC[C@H]1OC(=O)[C@H](C)[C@@H](O[C@H]2C[C@@](C)(OC)[C@@H](O)[C@H](C)O2)[C@H](C)[C@@H](O[C@@H]2O[C@H](C)C[C@H](N(C)C)[C@H]2O)[C@](C)(O)C[C@@H](C)CN(C)[C@H](C)[C@@H](O)[C@]1(C)O [AZITHROMYCIN]	17.52	11.42	33.15	140.4
C1=C(c2ccccc2)CCN(C[C@@H]2CCC=C(c3ccccc3)C2)C1 [CI-1007]	2.34	2.65	2.63	1.46
CC(=O)[C@H]1CC[C@H]2[C@@H]3CC[C@H]4C[C@](C)(O)CC[C@]4(C)[C@H]3CC[C@]12C [GANAXOLONE]	1.39	0.76	5.65	77.25
CC1COc2c(N3CCN(C)CC3)c(F)cc3c(=O)c(C(=O)O)cn1c23 (stereo not drawn) [OFLOXACIN]	218.1	32.85	297.93	407.7
CCC1(C)CC(=O)NC1=O (stereo not drawn) [ETHOSUXIMIDE]	2792.79	285.71	6666.67	2166.68
CC(C)N(CCC(C(N)=O)(c1ccccc1)c1ccccn1)C(C)C (stereo not drawn) [DISOPYRAMIDE]	2.2	6.07	550.48	101.6
Cc1cnc(NC(=O)C2=C(O)c3ccccc3S(=O)(=O)N2C)s1 [MELOXICAM]	2856	4998	6655.81	6870
CN1CCN(c2c(F)cc3c(=O)c(C(=O)O)cn(CCF)c3c2F)CC1 [FLEROXACIN]	133.54	152.4	432.41	618
CCn1cc(C(=O)O)c(=O)c2cc(F)c(N3CCN(C)CC3)cc21 [PEFLOXACIN]	259.2	67.2	505.26	120
Cc1nc(=O)c(C#N)c(NCc2cccnc2)[nH]1 [PELRINONE]	39.2	20	152.38	84
CC(C)(C)S(=O)(=O)C[C@@H](Cc1ccccc1)C(=O)N[C@@H](Cc1cnc[nH]1)C(=O)N[C@@H](CC1CCCCC1)[C@@H](O)[C@@H](O)C1CC1 [REMIKIREN]	0.14	0.25	0.2	0.63
COc1nccc(-c2c(-c3ccc(F)cc3)ncn2C2CCNCC2)n1 [SB-242235]	115.9	37.61	141	147.59
CC(C(=O)O)c1ccc(C(=O)c2cccs2)cc1 (stereo not drawn) [SUPROFEN]	355	320	619.76	1108
CC(C(=O)O)c1ccc(-c2ccccc2)c(F)c1 (stereo not drawn) [FLURBIPROFEN]	2364.5	1042.5	2900.56	4718.5
COc1ccc(C(C)C)cc1CN[C@H]1C2CCN(CC2)[C@H]1C(c1ccccc1)c1ccccc1 [EZLOPITANT]	0.6	2.36	125	10.82
CC[C@H]1OC(=O)[C@H](C)[C@@H](O[C@H]2C[C@@](C)(OC)[C@@H](O)[C@H](C)O2)[C@H](C)[C@@H](O[C@@H]2O[C@H](C)C[C@H](N(C)C)[C@H]2O)[C@](C)(O)C[C@@H](C)C(=O)[C@H](C)[C@@H](O)[C@]1(C)O [ERYTHROMYCIN]	1.32	1.88	36.8	31.38
CN1C(C(=O)Nc2nccs2)=C(O)c2ccccc2S1(=O)=O [SUDOXICAM]	3821.3	4415.2	8161.43	5554
CC(C)(C)NC(=O)[C@@H]1CN(Cc2cccnc2)CCN1C[C@@H](O)C[C@@H](Cc1ccccc1)C(=O)N[C@H]1c2ccccc2C[C@H]1O.O [INDINAVIR]	5.34	3.13	52.98	46.1
CC1=NC(=O)C(CCN(C(C)C)C(C)C)(c2ccccc2)C2CCCCN12 (stereo not drawn) [ACTISOMIDE]	26.46	14.49	51.51	71.7
